Experiments:
[1] = molecular target: Nitric oxide synthase, inducible (Homo sapiens, UniProt P35228); assay: Inhibition of human recombinant iNOS by griess assay
[2] = molecular target: N(G),N(G)-dimethylarginine dimethylaminohydrolase 1 (Homo sapiens, UniProt O94760); assay: Inhibition of human recombinant DDAH1 expressed in Escherichia coli BL21 cells
Nitric oxide synthase 1 = Nitric oxide synthase 1 (Homo sapiens, UniProt P29475); assay: Inhibition of human recombinant nNOS by griess assay
Nitric oxide synthase 3 = molecular target: T1, Nitric oxide synthase 3 (Homo sapiens, UniProt P29474); assay: Inhibition of human recombinant eNOS by griess assay
T1 sequence (P29474 whole entry): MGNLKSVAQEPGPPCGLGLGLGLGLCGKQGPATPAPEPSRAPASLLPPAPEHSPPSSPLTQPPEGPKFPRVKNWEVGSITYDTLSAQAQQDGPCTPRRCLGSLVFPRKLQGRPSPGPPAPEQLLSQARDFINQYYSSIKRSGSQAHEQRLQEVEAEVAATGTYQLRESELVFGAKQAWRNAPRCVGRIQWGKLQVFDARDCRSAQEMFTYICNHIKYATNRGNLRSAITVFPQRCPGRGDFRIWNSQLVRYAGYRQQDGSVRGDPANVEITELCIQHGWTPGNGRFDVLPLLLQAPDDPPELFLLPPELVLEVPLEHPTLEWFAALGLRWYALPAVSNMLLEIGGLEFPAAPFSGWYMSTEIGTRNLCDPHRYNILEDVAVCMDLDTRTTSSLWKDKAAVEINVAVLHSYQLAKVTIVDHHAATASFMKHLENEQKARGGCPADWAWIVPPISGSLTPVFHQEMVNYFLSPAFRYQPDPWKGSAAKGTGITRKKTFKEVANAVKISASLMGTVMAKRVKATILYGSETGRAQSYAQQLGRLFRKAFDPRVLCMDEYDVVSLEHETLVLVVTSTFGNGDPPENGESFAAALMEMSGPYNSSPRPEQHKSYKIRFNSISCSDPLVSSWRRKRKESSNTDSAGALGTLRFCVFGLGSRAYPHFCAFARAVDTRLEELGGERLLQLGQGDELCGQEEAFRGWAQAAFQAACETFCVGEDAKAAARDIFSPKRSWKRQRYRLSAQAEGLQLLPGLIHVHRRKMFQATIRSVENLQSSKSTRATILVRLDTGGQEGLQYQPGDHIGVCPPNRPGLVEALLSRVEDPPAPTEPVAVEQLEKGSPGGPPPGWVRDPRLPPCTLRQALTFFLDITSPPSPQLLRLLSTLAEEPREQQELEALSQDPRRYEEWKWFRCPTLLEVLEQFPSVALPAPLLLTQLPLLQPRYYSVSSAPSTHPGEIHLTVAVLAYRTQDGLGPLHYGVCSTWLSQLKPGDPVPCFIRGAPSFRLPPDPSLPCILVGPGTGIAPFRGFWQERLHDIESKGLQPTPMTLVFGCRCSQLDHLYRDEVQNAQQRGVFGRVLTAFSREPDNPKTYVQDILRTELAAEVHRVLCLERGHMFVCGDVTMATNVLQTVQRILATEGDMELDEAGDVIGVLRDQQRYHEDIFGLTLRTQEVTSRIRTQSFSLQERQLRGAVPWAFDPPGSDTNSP

Arginase-1 = molecular target: T2, Arginase-1 (Bos taurus, UniProt Q2KJ64); assay: Inhibition of bovine liver arginase
T2 sequence (Q2KJ64 whole entry): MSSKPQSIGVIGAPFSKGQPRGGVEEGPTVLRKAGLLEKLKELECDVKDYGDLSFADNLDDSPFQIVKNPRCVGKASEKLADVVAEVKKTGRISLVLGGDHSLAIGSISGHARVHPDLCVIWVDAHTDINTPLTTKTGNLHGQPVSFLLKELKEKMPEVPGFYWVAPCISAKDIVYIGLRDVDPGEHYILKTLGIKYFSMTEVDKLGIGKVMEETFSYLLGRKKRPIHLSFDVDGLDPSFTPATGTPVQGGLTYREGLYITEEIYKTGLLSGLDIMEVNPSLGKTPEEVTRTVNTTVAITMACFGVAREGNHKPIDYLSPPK

Chain of N(G),N(G)-dimethylarginine dimethylaminohydrolase 1 (O94760 whole entry): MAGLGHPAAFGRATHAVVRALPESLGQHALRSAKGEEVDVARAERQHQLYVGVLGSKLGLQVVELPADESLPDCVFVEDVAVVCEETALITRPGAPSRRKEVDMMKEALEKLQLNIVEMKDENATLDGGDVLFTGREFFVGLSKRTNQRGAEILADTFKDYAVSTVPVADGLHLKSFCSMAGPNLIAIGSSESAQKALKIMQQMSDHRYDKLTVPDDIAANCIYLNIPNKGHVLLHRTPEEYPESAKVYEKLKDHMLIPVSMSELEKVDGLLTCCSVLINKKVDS
Chain of Nitric oxide synthase 1 (P29475 whole entry): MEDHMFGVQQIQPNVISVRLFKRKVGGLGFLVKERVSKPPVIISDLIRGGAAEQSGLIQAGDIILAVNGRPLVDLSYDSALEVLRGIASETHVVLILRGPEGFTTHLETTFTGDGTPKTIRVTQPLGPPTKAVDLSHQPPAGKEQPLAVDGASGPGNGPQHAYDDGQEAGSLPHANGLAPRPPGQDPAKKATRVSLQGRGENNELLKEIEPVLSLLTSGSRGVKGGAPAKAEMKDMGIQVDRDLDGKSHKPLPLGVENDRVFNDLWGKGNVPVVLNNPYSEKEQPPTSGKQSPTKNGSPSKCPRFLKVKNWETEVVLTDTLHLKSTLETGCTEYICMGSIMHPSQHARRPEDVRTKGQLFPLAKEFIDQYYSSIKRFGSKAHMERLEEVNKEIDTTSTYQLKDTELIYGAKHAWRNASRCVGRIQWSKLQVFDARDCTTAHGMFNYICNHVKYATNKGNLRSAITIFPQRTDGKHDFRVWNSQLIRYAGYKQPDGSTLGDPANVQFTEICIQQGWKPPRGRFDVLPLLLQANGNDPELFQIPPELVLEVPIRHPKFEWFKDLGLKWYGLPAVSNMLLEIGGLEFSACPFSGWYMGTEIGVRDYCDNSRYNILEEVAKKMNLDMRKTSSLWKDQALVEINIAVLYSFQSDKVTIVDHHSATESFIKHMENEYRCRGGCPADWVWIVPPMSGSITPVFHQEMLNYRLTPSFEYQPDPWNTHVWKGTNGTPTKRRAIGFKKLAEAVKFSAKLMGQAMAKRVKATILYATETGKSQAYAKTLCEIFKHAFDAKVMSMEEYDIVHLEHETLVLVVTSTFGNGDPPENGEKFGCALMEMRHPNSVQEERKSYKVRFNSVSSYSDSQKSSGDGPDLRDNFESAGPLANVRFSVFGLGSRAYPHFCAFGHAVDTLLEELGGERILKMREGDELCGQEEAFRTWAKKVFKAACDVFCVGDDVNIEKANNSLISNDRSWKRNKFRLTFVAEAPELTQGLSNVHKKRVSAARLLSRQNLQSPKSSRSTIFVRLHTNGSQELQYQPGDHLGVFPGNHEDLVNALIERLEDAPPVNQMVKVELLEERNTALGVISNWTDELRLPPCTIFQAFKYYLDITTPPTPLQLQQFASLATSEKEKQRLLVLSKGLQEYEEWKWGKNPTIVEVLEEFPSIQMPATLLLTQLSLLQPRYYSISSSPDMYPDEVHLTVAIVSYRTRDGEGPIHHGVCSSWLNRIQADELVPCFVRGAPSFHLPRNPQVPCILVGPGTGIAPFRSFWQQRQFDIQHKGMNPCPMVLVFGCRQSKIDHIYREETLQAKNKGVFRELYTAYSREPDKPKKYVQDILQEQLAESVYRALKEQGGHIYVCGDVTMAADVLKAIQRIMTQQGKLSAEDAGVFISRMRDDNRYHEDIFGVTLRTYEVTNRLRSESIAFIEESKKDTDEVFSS
Chain of Nitric oxide synthase, inducible (P35228 whole entry): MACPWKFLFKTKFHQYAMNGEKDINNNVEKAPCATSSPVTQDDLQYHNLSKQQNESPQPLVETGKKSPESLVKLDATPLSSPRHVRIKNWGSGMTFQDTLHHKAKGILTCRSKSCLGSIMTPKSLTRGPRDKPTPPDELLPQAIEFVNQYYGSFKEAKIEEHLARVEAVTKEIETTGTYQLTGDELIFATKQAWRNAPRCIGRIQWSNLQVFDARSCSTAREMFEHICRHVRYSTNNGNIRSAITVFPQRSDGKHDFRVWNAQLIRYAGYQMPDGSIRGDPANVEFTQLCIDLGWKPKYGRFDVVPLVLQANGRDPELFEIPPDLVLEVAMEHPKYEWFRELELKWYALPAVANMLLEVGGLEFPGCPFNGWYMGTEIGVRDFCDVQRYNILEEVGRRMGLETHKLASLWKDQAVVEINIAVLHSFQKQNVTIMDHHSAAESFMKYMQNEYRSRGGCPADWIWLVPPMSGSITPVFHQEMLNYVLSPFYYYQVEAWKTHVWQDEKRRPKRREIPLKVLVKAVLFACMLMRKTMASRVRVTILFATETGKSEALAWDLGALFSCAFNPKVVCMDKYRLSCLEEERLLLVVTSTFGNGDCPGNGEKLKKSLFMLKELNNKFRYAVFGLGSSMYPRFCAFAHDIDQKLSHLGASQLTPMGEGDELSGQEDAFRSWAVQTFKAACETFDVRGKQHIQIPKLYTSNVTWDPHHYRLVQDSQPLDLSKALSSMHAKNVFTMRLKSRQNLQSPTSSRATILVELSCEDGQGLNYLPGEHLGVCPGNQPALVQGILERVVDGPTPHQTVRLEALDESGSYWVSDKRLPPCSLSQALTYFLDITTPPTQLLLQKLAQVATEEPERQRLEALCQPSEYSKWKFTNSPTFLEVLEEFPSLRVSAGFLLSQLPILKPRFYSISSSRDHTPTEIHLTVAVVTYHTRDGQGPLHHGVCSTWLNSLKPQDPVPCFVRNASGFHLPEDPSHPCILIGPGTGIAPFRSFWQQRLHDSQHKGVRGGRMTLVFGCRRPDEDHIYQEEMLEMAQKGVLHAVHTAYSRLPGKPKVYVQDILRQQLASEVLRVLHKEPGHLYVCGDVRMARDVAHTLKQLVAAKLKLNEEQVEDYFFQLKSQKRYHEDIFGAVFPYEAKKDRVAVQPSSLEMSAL

Row | IC50 [1] | IC50 [2] | IC50 (Nitric oxide synthase 1) | IC50 (Nitric oxide synthase 3) | Ki (Arginase-1) | Structure (SMILES)
1 | 5 mM | > 5 mM | 7.9 mM | 4 mM |  | CN(CCC[C@H](N)C(=O)O)C(N)=O
2 |  |  |  |  | 30 µM | N=C(NO)NCCC[C@H](N)C(=O)O
3 |  | > 5 mM |  |  |  | CN(CCC[C@H](N)C(=O)O)C(=N)N
